Source: publication PMC8916643, “Molecular physiology of pumiliotoxin sequestration in a poison frog” (PLoS ONE, 2022)

Columns and labels:
human recombinant CYP2D6 = target: T1, human recombinant CYP2D6 (Homo sapiens, UniProt P10635); experiment: CYP2D6 metabolite discovery (metID); format: in vitro ADME; details: initial concentration 10 μM
T1 construct: Eurofins Discovery Services (Eurofins Panlabs Inc) ran the assay
Method: (§1) Assays for human CYP activity (CYP phenotyping), CYP2D6 metabolite discovery (metID), ion channel inhibition (CiPA), and G-protein coupled receptor (GPCR) activity (gpcrMAX) were performed through Eurofins Discovery Services (Eurofins Panlabs Inc, St. Charles MO, USA). In the CYP phenotyping panel, human recombinant CYP1A2, CYP2B6, CYP2C8, CYP2C9, CYP2C19, CYP2D6, and CYP3A4 were included in the assay. A concentration of 1E-07 M of PTX 251D was tested, and the percent compound remaining was quantified at 0, 15, 30, 45, and 60 minutes using HPLC-MS/MS. As a positive control, a reference compound was used for each CYP tested (see S1 File for results). In the CYP2D6 metabolism assay, human recombinant CYP2D6 was incubated with an initial concentration of 10 μM and metabolites were quantified after 90 minutes using LC-MS/MS. Two replicates were used for the CYP phenotyping panel and one replicate was used for CYP2D6 metabolite assay. The CiPA assay was a cell-based QPatch on voltage-gated sodium channel NaV1.5 (peak and late/agonist), voltage-gated potassium channels Kv4.3/KChIP2, hERG, KCNQ1/minK, Kir2.1, and voltage-gated calcium channel Cav1.2. The concentrations of PTX 251D assayed were 3, 10, and 30 μM, and a reference compound for each channel was used (see S1 File for results and individual QPatch parameters). […]

KCNQ1/minK = target: T2, KCNQ1/minK (Homo sapiens, UniProt P51787); experiment: CiPA cell-based QPatch ion channel inhibition; details: maximum concentration of 30 uM
T2 construct: Eurofins Discovery Services (Eurofins Panlabs Inc) ran the assay
Method: (§2) Assays for human CYP activity (CYP phenotyping), CYP2D6 metabolite discovery (metID), ion channel inhibition (CiPA), and G-protein coupled receptor (GPCR) activity (gpcrMAX) were performed through Eurofins Discovery Services (Eurofins Panlabs Inc, St. Charles MO, USA). In the CYP phenotyping panel, human recombinant CYP1A2, CYP2B6, CYP2C8, CYP2C9, CYP2C19, CYP2D6, and CYP3A4 were included in the assay. A concentration of 1E-07 M of PTX 251D was tested, and the percent compound remaining was quantified at 0, 15, 30, 45, and 60 minutes using HPLC-MS/MS. As a positive control, a reference compound was used for each CYP tested (see S1 File for results). In the CYP2D6 metabolism assay, human recombinant CYP2D6 was incubated with an initial concentration of 10 μM and metabolites were quantified after 90 minutes using LC-MS/MS. Two replicates were used for the CYP phenotyping panel and one replicate was used for CYP2D6 metabolite assay. The CiPA assay was a cell-based QPatch on voltage-gated sodium channel NaV1.5 (peak and late/agonist), voltage-gated potassium channels Kv4.3/KChIP2, hERG, KCNQ1/minK, Kir2.1, and voltage-gated calcium channel Cav1.2. The concentrations of PTX 251D assayed were 3, 10, and 30 μM, and a reference compound for each channel was used (see S1 File for results and individual QPatch parameters). In the gpcrMAX assay a panel of 165 GPCRs was tested through the DiscoverX PathHunter beta-arrestin enzyme fragment complementation technology, and a concentration of 10 μM PTX 251D was tested for both agonist and antagonist activity along with a reference compound for each GPCR (see S1 File for results).

Kir2.1 = target: T3, Kir2.1 (Homo sapiens, UniProt P63252); experiment: CiPA cell-based QPatch ion channel inhibition; details: maximum concentration of 30 uM
T3 construct: Eurofins Discovery Services (Eurofins Panlabs Inc) ran the assay
T3 sequence (P63252 1-427): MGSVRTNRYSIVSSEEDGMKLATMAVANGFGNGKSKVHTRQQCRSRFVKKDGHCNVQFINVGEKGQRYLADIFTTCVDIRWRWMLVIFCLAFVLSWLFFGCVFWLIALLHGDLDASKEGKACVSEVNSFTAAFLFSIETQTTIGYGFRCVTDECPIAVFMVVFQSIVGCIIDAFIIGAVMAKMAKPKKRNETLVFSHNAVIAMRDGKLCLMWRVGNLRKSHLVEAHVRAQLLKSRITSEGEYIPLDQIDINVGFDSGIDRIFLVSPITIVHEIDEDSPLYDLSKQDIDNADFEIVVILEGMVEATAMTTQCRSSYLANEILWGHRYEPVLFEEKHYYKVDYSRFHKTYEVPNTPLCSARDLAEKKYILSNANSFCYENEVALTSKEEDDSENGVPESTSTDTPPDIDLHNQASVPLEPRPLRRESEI
Method: as §2

Kv4.3/KChIP2 = target: T4, Kv4.3/KChIP2 (Homo sapiens, UniProt Q9UK17); experiment: CiPA cell-based QPatch ion channel inhibition; details: maximum concentration of 30 uM
T4 construct: Eurofins Discovery Services (Eurofins Panlabs Inc) ran the assay
T4 sequence (Q9UK17 1-655): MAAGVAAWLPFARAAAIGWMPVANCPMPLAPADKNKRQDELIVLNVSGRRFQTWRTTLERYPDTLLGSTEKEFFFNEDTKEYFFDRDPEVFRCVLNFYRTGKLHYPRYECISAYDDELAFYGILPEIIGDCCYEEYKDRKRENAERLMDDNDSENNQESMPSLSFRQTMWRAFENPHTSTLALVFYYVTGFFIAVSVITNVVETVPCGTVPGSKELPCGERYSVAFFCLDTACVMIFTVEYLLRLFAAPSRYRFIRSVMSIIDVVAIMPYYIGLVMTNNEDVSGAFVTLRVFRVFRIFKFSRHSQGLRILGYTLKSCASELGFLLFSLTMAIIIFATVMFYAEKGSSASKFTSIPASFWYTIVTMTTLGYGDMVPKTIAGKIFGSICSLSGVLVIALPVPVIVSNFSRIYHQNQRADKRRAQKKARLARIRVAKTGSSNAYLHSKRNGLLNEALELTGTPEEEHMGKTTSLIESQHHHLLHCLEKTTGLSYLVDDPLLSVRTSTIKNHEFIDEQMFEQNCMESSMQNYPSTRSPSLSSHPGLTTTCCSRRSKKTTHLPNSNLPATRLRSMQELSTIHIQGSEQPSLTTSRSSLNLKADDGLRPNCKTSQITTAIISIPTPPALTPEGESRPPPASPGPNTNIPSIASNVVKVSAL
T4 sequence (Q9NS61 1-270 partner): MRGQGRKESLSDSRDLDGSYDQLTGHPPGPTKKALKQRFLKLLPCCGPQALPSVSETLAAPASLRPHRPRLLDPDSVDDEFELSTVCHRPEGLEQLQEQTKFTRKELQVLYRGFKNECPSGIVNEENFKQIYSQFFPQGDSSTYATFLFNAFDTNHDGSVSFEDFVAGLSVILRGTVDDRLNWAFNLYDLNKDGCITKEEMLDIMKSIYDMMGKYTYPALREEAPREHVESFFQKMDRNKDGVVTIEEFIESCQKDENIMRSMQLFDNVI
Method: as §2

hERG = target: T5, hERG (Homo sapiens, UniProt Q12809); experiment: CiPA cell-based QPatch ion channel inhibition; details: maximum concentration of 30 uM
T5 construct: Eurofins Discovery Services (Eurofins Panlabs Inc) ran the assay
Method: as §2

[1] = target: T6, voltage-gated calcium channel Cav1.2 (Homo sapiens, UniProt Q13936); experiment: CiPA cell-based QPatch ion channel inhibition; details: maximum concentration of 30 uM
T6 construct: Eurofins Discovery Services (Eurofins Panlabs Inc) ran the assay
Method: as §2

[2] = target: T7, voltage-gated sodium channel NaV1.5 (Homo sapiens, UniProt Q14524); experiment: CiPA cell-based QPatch ion channel inhibition; details: maximum concentration of 30 uM
T7 construct: Eurofins Discovery Services (Eurofins Panlabs Inc) ran the assay
Method: as §2

panel of 165 GPCRs = experiment: gpcrMAX PathHunter beta-arrestin GPCR panel (agonist and antagonist); format: cell-based, human; details: 10 uM; 165 GPCRs tested
Method: as §1

T1 sequence (P10635 whole entry): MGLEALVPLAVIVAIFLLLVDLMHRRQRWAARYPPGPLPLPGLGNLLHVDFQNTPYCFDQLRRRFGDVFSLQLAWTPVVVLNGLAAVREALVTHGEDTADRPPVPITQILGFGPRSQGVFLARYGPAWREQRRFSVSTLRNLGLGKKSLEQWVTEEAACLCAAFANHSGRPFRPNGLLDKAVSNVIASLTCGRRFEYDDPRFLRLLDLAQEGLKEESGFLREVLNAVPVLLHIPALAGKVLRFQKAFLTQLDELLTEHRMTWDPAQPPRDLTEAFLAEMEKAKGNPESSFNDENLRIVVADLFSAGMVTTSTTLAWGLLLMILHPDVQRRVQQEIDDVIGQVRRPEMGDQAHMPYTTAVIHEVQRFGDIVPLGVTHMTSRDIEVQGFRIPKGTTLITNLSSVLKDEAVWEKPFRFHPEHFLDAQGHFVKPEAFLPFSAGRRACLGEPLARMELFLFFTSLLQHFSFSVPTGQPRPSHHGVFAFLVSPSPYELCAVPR
T2 sequence (P51787 whole entry): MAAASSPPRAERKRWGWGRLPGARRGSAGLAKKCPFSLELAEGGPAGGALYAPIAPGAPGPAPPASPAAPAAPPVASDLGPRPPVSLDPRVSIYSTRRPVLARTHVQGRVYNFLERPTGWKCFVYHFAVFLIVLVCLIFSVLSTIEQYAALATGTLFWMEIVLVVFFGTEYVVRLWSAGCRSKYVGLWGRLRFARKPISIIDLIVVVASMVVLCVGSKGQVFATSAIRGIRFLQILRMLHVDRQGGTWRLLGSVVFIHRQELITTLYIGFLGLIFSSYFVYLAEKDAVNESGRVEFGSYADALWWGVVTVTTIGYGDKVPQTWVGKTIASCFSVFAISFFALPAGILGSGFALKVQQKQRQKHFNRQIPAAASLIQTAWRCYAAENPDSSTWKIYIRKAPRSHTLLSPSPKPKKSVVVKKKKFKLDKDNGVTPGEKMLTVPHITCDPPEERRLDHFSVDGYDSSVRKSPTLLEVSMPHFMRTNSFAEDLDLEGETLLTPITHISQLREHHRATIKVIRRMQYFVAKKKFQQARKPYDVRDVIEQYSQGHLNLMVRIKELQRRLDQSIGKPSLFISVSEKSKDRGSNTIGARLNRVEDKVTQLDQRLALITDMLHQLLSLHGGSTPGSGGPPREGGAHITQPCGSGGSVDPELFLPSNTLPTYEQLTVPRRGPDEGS
T5 sequence (Q12809 whole entry): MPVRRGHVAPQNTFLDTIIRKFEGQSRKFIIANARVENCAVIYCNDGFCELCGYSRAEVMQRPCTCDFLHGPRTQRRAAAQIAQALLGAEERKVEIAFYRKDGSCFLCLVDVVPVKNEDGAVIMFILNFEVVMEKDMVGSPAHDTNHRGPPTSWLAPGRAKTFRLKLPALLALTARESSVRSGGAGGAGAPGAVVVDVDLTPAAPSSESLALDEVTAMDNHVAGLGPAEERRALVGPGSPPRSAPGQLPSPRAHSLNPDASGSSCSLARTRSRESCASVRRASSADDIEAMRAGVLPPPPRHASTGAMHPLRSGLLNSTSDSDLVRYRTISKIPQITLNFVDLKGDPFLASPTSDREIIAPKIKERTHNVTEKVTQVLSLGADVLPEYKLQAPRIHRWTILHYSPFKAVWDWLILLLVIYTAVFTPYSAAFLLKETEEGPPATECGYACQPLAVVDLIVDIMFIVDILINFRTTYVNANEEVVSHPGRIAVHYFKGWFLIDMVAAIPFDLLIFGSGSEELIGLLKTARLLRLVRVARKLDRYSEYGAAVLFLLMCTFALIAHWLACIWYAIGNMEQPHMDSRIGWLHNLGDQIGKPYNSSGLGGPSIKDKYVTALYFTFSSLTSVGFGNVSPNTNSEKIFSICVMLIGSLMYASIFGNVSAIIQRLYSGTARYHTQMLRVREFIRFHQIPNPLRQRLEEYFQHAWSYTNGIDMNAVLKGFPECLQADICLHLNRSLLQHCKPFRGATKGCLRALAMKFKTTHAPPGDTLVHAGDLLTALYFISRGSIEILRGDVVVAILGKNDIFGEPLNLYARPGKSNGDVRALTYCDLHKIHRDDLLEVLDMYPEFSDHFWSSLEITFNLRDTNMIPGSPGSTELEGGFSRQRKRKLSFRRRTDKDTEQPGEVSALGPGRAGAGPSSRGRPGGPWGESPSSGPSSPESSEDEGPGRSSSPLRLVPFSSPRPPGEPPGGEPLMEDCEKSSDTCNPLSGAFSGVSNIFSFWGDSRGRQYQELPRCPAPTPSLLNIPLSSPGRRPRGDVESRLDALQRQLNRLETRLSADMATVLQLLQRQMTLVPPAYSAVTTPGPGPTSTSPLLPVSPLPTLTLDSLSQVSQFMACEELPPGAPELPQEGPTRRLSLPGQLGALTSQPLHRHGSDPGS
T7 sequence (Q14524 whole entry): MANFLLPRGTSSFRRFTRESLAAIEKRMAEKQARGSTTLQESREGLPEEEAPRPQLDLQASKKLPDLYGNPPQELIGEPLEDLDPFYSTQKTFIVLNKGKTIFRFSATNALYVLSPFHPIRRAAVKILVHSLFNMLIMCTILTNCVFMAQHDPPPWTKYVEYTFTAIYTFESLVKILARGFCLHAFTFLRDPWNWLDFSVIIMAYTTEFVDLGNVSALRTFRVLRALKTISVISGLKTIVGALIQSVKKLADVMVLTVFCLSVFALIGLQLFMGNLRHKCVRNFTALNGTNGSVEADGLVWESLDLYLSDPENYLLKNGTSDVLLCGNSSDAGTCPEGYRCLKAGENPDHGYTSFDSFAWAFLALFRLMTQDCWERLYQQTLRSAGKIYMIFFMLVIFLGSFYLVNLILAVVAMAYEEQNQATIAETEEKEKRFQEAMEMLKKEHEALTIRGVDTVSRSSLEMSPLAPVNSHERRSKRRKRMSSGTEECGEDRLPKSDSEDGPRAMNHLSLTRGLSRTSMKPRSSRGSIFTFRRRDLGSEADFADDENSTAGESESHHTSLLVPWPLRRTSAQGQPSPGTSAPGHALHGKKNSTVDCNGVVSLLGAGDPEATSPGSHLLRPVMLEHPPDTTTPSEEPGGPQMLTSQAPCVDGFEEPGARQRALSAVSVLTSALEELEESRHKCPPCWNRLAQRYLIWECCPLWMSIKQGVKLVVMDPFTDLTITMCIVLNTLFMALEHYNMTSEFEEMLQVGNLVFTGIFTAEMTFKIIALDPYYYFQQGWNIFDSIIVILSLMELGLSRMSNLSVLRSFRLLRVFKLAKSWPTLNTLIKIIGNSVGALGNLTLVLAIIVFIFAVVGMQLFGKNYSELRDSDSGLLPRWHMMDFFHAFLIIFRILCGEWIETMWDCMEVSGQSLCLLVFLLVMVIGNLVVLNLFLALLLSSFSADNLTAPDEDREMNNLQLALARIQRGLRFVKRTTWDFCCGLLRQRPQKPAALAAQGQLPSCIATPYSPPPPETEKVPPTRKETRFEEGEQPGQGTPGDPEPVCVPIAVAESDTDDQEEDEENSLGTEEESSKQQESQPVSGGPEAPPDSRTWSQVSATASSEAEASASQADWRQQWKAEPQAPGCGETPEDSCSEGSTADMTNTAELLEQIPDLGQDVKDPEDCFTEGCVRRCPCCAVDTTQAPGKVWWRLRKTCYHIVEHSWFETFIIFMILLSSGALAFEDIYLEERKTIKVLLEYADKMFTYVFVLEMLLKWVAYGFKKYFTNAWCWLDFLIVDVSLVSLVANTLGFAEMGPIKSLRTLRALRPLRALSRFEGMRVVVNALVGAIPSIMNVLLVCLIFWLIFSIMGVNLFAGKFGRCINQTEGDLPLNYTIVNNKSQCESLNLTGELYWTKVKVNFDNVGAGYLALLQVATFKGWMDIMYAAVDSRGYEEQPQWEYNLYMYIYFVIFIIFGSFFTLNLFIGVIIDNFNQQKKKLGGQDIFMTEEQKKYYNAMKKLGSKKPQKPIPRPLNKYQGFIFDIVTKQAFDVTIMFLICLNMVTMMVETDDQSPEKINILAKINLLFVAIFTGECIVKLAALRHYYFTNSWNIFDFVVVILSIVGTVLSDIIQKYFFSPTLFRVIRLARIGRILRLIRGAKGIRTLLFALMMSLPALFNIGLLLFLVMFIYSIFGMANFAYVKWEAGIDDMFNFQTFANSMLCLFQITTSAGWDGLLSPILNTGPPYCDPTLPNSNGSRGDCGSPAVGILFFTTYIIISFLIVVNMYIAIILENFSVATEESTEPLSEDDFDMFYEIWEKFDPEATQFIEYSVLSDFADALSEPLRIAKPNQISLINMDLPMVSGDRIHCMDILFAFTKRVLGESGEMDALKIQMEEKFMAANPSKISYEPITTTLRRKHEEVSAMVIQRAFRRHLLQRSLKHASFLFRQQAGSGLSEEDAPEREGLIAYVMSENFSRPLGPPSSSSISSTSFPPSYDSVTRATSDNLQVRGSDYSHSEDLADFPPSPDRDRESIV

CCCCC(C)C=C1CN2CCCC2C(C)(O)C1 (stereo not drawn) [PTX 251D, pumiliotoxin (PTX 251D)]
metabolites identified with CYP2D6 (human recombinant CYP2D6; 90 minutes, one or two hydroxylation events): two metabolites were identified
clearance of PTX 251D in CYP2D6 metabolite discovery screen (human recombinant CYP2D6; after 90 minutes, LC-MS/MS): completely cleared
inhibitory effect on KCNQ1/minK (KCNQ1/minK): no inhibitory effect
inhibitory effect on Kir2.1 (Kir2.1): no inhibitory effect
inhibitory effect on Kv4.3/KChIP2 (Kv4.3/KChIP2): no inhibitory effect
inhibitory effect on hERG (hERG): no inhibitory effect
inhibitory effect on Cav1.2 [1]: no inhibitory effect
inhibitory effect on NaV1.5 [2]: no inhibitory effect
inhibition or activation of GPCRs (panel of 165 GPCRs): no significant inhibition or activation
